Among the data in ChEMBL document CHEMBL2150911, “Charting, navigating, and populating natural product chemical space for drug discovery” (J Med Chem, 2012) are IC50 values, retold here.

Assay [1] deals with T1, Polyunsaturated fatty acid 5-lipoxygenase (Homo sapiens, UniProt P09917).
T1 sequence (P09917 whole entry): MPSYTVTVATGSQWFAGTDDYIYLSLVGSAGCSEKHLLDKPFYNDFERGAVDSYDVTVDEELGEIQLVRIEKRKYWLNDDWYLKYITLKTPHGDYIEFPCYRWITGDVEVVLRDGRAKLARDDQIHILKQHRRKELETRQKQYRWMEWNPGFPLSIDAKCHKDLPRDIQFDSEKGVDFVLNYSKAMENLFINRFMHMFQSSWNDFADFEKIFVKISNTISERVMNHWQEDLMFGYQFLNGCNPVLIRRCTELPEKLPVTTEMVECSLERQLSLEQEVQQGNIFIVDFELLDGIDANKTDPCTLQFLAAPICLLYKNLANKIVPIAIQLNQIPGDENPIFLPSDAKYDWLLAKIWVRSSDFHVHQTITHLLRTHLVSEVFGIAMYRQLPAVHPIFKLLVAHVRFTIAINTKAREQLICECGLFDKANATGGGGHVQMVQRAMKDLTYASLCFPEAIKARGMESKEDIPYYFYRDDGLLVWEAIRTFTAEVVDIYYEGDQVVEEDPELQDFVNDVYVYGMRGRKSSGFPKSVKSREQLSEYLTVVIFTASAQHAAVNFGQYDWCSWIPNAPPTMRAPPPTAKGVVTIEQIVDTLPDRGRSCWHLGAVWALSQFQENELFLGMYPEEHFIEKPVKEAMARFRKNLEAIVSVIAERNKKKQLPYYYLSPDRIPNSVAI
In words: Inhibition of 5-LOX.

Assay [2] concerns the target T2, M-phase inducer phosphatase 1 (Homo sapiens, UniProt P30304).
T2 sequence (P30304 whole entry): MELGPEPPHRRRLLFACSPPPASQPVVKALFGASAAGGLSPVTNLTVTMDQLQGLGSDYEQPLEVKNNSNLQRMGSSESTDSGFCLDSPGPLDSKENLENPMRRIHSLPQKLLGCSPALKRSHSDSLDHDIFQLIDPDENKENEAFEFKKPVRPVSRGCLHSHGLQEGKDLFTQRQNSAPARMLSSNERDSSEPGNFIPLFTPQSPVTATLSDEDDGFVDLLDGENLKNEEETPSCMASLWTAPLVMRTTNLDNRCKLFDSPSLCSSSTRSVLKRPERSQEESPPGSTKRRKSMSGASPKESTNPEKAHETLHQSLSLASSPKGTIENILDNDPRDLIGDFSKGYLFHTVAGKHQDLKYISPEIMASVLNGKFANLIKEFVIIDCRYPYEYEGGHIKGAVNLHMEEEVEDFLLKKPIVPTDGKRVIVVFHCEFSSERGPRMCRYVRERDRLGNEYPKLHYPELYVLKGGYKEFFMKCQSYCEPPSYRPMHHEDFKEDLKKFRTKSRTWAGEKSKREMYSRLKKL
In words: Inhibition of His-tagged Cdc25A expressed in the Escherichia coli BL21(DE3) using p-nitrophenyl phosphate as substrate for 80 mins by spectrophotometry.

`c1ccc(COc2ccc3ccccc3c2)cc1` yielded an IC50 in assay [1] of 7500 nM. This lies in the single-digit micromolar range.
On the same count and under the same terms, with `COC1(c2cccc(COc3ccc4ccccc4c3)c2)CCOCC1` the figure was 1500 nM; with `CC(c1ccc(OCc2ccccc2)cc1)N(O)C(N)=O` (centres undefined), 360 nM.
`COC(=O)[C@@H]1[C@H]2C[C@H]3c4[nH]c5ccccc5c4CCN3C[C@@H]2CC[C@@H]1O` [YOHIMBINE] displayed a half-maximal inhibitory concentration (IC50) in assay [2] of 22.3 µM.
